# Experimental data from patent US20080039320A1 (priority 2004, published 2008).
# Where two headings read alike, the source gives them in different places.
# What was measured:
# Puccinia recondita [1] = assay: 6 day protective activity against brown rust of wheat, foliar spray (Use Example 4); type: in vivo; settings: wheat seedlings
# Method: (§1) The active compounds were prepared separately as a stock solution with 0.25% by weight of active compound in acetone or DMSO. 1% by weight of the emulsifier Uniperol® EL (wetting agent having emulsifying and dispersing action based on ethoxylated alkylphenols) was added to this solution, and the mixture was diluted with water to the desired concentration.
# (§2) The visually determined percentages of infected leaf areas were converted into efficacies in % of the untreated control:
# (§3) The efficacy (E) is calculated as follows using Abbot's formula: E=(1−α/β)·100 α corresponds to the fungicidal infection of the treated plants in % and β corresponds to the fungicidal infection of the untreated (control) plants in % An efficacy of 0 means that the infection level of the treated plants corresponds to that of the untreated control plants; an efficacy of 100 means that the treated plants were not infected.
# (§4) The expected efficacies of active compound combinations were determined using Colby's formula (Colby, S. R. “Calculating synergistic and antagonistic responses of herbicide combinations”, Weeds, 15, 20-22, 1967) and compared with the observed efficacies.
# (§5) Colby's formula: E=x+y−x·y/100
# 6 Day Protective Activity Against Puccinia recondita on Wheat (Brown Rust of Wheat) Leaves of potted wheat seedlings of the cultivar “Kanzler” were sprayed to runoff point with an aqueous suspension having the concentration of active compound stated below. After six days, the treated plants were inoculated with a spore suspension of brown rust of wheat (Puccinia recondite). The plants were then placed in a chamber of high atmospheric humidity (90 to 95%) at 20 to 22° C. for 24 hours. During this time, the spores germinated and the germ tubes penetrated into the leaf tissue. The next day, the test plants were returned to the greenhouse and cultivated at temperatures between 20 and 22° C. and at 65 to 70% relative atmospheric humidity for a further 7 days. The extent of the rust fungus development on the leaves was then determined visually.
# Puccinia recondita [2] = assay: Protective activity against brown rust of wheat, menadione watered in, partner sprayed 6 days later (Use Example 2); type: in vivo; settings: wheat seedlings
# Method: as §1, §2, §3, §4
# Colby's formula: E=x+y−x·y/100 […]
# Phytophthora infestans = type: in vivo; settings: tomato plants
# Pyrenophora teres = assay: Activity against net blotch of barley, 6 day protective application (Use Example 3); type: in vivo, Pyrenophora [syn. Drechslera] teres; settings: barley seedlings
# Method: as §1, §2, §3, §4, §5
# Activity Against Net Blotch of Barley Caused by Pyrenophora teres, 6 Day Protective Application Leaves of potted barley seedlings were sprayed to runoff point with an aqueous suspension having the concentration of active compound stated below. After 6 days, the test plants were inoculated with an aqueous spore suspension of Pyrenophora [syn. Drechslera] teres, the net blotch pathogen. The test plants were then placed in a greenhouse at temperatures between 20 and 24° C. and 95 to 100% relative atmospheric humidity. After 6 days, the extent of the development of the disease was determined visually in % infection of the total leaf area.
# Pyricularia oryzae = type: in vivo; settings: rice seedlings
# [3] = test system: Erysiphe [syn. Blumeria] graminis forma specialis. tritici; assay: Activity against mildew of wheat, 6 day protective application (Use Example 6); type: in vivo; settings: wheat seedlings
# Method: as §1, §2, §3, §4, §5
# Activity Against Mildew of Wheat Caused by Erysiphe [syn. Blumeria] graminis Forma Specialis. Tritici, 6 Day Protective Application Leaves of potted wheat seedlings of the cultivar “Kanzler” were sprayed to runoff point with an aqueous suspension having the concentration of active compound stated below. The suspension or emulsion had been prepared as described above. 6 days after the application of the active compound, the plants were dusted with spores of mildew of wheat (Erysiphe [syn. Blumeria] graminis forma specialis. tritici). The test plants were then placed in a greenhouse at temperatures between 20 and 24° C. and at 60 to 90% relative atmospheric humidity. After 7 days, the extent of the mildew development was determined visually in % infection of the total leaf area.
# phytopathogenic fungi = assay: Fungicidal tests, overall statements; type: in vivo; settings: menadione on its own
# Method: as §1, §2
# The efficacy (E) is calculated as follows using Abbot's formula: E=(1−α/β)·100
# as §4, §5
molecule,measurement,setting,value
"Fc1ccc([C@]2(Cn3cncn3)O[C@H]2c2ccccc2Cl)cc1 (racemic) [epoxiconazole, (2RS,3SR)-1-[3-(2-chlorophenyl)-2,3-epoxy-2-(4-fluorophenyl)propyl]-1H-1,2,4-triazole]",Observed effect (%),Puccinia recondita [1]; 1 ppm,22%
"O=C(Nc1ccccc1-c1ccc(Cl)cc1)c1cccnc1Cl [boscalid, 2-chloro-N-(4′-chlorobiphenyl-2-yl)nicotinamide]",Observed effect (%),Puccinia recondita [1]; 63 ppm,22%
"CC1CCN(c2c(-c3c(F)cc(F)cc3F)c(Cl)nc3ncnn23)CC1 [compound A, 5-Chloro-7-(4-methylpiperidin-1-yl)-6-(2,4,6-trifluorophenyl)-[1,2,4]triazolo[1,5-a]pyrimidine]",Observed effect (%),"Puccinia recondita [2]; 4 ppm, sprayed to runoff",25%
same,Observed effect (%),Puccinia recondita [1]; 63 ppm,22%
"COc1ccc(C(=CC(=O)N2CCOCC2)c2ccc(Cl)cc2)cc1OC [dimethomorph, 3-(4-chlorophenyl)-3-(3,4-dimethoxyphenyl)-1-morpholin-4-ylpropenone]",Observed effect (%),Phytophthora infestans; 16 ppm,37%
"CC(C)NC(=O)N1CC(=O)N(c2cc(Cl)cc(Cl)c2)C1=O [iprodione, N-isopropyl-3-(3,5-dichlorophenyl)-2,4-dioxoimidazolidine-1-carboxamide]",Observed effect (%),Pyrenophora teres; 250 ppm,22%
"CC1=CC(=O)c2ccccc2C1=O [menadione, 2-methyl-1,4-naphthoquinone]",Observed effect (%),"Pyricularia oryzae; 250 ppm, efficacy in % of untreated control (Abbot)",0%
same,Observed effect (%),"Puccinia recondita [2]; 3.6%, watered with 2 ml aqueous suspension comprising 71 mg",0%
same,Observed effect (%),Pyrenophora teres; 16 ppm,0%
same,Observed effect (%),Pyrenophora teres; 63 ppm,0%
same,Observed effect (%),Puccinia recondita [1]; 1 ppm,0%
same,Observed effect (%),Puccinia recondita [1]; 16 ppm,25%
same,Observed effect (%),Phytophthora infestans; 63 ppm,27%
same,Observed effect (%),[3]; 16 ppm,0%
same,fungicidal action against phytopathogenic fungi,phytopathogenic fungi,no fungicidal action
"COc1cc(C)c(C(=O)c2c(OC)ccc(Br)c2C)c(OC)c1OC [metrafenone, 3′-bromo-2,3,4,6′-tetramethoxy-2′,6-dimethylbenzophenone]",Observed effect (%),[3]; 63 ppm,67%
"COC(=O)N(OC)c1ccccc1COc1ccn(-c2ccc(Cl)cc2)n1 [pyraclostrobin, methyl N-{2-[1-(4-chlorophenyl)-1H-pyrazol-3-yloxymethyl]phenyl}(N-methoxy)carbamate]",Observed effect (%),"Pyricularia oryzae; 1 ppm, applied 1 day before inoculation",20%
zinc ammoniate ethylenebis(dithiocarbamate) [metiram],Observed effect (%),[3]; 63 ppm,0%
